Reference: patent US4262008A, “2,4-Disubstituted 5-oxo-5H-hexahydrofuro[3,2b]pyrroles” (Beecham Group Limited, priority 1978, dated 1981)
Read-outs that look alike come from different tables or passages of the source.

How the values were obtained:
[1] = test system: platelet aggregation in response to collagen (human platelet-rich plasma); test: Platelet aggregation in vitro, response to collagen; assay type: cell-based; settings: human P.R.P., 37° C., 3 min preincubation, 50% inhibition of just-maximal collagen response
Experimental: (§1) Human blood (20 ml) is drawn into a plastic syringe and immediately anti-coagulated by mixing with 0.1 volumes of 3.8% (w/v) trisodium citrate dihydrate. Platelet-rich plasma (P.R.P.) is prepared by centrifuging the anticoagulated blood of 180 g, for 12 minutes, at room temperature. Collagen "Collagen-reagent Horm" (Hormon-Chemie Munchem, Postfach 101, Germany) is dilated as necessary with 0.9% (w/v) saline and kept on ice. Adenosine 5'-diphosphate (A.D.P.) (Grade 1: sodium salt from equine muscle, Sigma.) is diluted, as necessary with 0.9% saline, from a 10 mM stock solution, pH 6.8 kept at -20° C. The compounds are dissolved freshly to 40 mM in dimethylformamide. P.R.P. is mixed with 0.1 volumes saline and 0.005 volumes compound on dimethylformamide (control) and incubated at 37° C. for 3 minutes before the addition of collagen.
(§2) Platelet aggregation in response to collagen and A.D.P. is measured photometrically (Born G.V.R., 1962, Nature, 194 927) in a Bryston aggregometer coupled to a Vitatron linear pen recorder. The concentration of collagen producing a just-maximal change in light transmittance and the concentration of A.D.P. to produce only a first-phase aggregation response are established in each control P.R.P. The concentration of compounds to inhibit these control response by 50% in each case are determined.

[2] = test system: platelet aggregation in response to A.D.P. (human platelet-rich plasma); test: Platelet aggregation in vitro, response to A.D.P.; assay type: cell-based; settings: human P.R.P., 37° C., 3 min preincubation, 50% inhibition of first-phase aggregation response, read-out: IC50 vs. ADP
Experimental: as §1, §2

[3] = test system: 5-hydroxytryptamine induced bronchoconstriction; test: Inhibition of 5-hydroxytryptamine induced bronchoconstriction in anaesthetised, artificially respired guinea pig (Konzett-Rossler preparation); assay type: in vivo
Experimental: 1. The compounds were examined for their ability to inhibit 5-hydroxytryptamine induced bronchoconstriction in the anaesthetised, artificially respired guinea pig (Konzett-Rossler preparation). The compounds were administered intravenously.

[4] = test system: bronchoconstriction induced by an histamine aerosol; test: Protection of conscious guinea pigs against bronchoconstriction induced by histamine aerosol (Herxheimer test); assay type: in vivo, guinea pig; settings: aerosol generated from a 100 μg/ml solution
Experimental: 3. The compounds were also examined for their ability to protect conscious guinea pigs against bronchoconstriction induced by an histamine aerosol (Herxheimer test). In these experiments the compounds were administered by aerosol administration.

[5] = test system: histamine induced changes in pulmonary resistance and lung compliance; test: Inhibition of histamine induced changes in pulmonary resistance and lung compliance in anaesthetised spontaneously respiring guinea pig; assay type: in vivo; settings: Cavia porcellus, iv
Experimental: 2. The compounds were tested for their ability to inhibit histamine induced changes in pulmonary resistance and lung compliance in the anaesthetised spontaneously respiring guinea pig. The compounds were administered intravenously.

Row | Structure (SMILES) | IC50 ([1]; Homo sapiens, Platelet) | IC50 ([2]; Homo sapiens, Platelet) | further results
1 | CCCCCC(O)CCN1C(=O)CC2OC(CCCCC(=O)OC)CC21 (stereo not shown) [Example 3, 4-(3"-Hydroxy-n-octyl)-2-(4'-methoxycarbonyl-n-butyl)-5-oxo-5H-hexahydrofuro[3,2-b]pyrrole] | 1700 nM | 4.9 µM | –
2 | CCCCCCC(O)CCN1C(=O)CC2OC(CCCCC(=O)OCC)CC21 (single isomer, unassigned) [Example 4 (Lower Rf epimer), 2-(4'-ethoxycarbonyl-n-butyl)-4-(3"-hydroxy-n-nonyl)-5-oxo-5H-hexahydrofuro[3,2b]pyrrole] | – | – | IC50 [1]: 28000 nM; IC50 [2]: 120 µM
3 | CCCCCCC(O)CCN1C(=O)CC2OC(CCCCC(=O)OCC)CC21 (single isomer, unassigned) [Example 4 (Higher Rf epimer), 2-(4'-ethoxycarbonyl-n-butyl)-4-(3"-hydroxy-n-nonyl)-5-oxo-5H-hexahydrofuro[3,2b]pyrrole] | – | – | IC50 [1]: 2900 nM; IC50 [2]: 7.4 µM
4 | CCCCCCC(C)(O)CCN1C(=O)CC2OC(CCCCC(=O)OCC)CC21 (stereo not shown) [Example 1, 2-(4'-Ethoxycarbonyl-n-butyl)-4-(3"-hydroxy-3"-methyl-n-nonyl)-5-oxo-5H-hexahydro-furo[3,2-b]pyrrole] | 8800 nM | 35 µM | ED50 ([3]; Cavia porcellus, iv, mean of 3 experiments, read-out: ED 50 against 5-hydroxytryptamine induced bronchoconstriction): 0.131 mg/kg; ED 50 range against 5-hydroxytryptamine induced bronchoconstriction ([3]; i.v., range of 3 experiments): 115 to 150 µg/kg; protection against histamine challenge [4]: highly significant protection; ED50 ([5]; lung compliance, read-out: ED 50 against compliance changes): 0.046 mg/kg; ED50 ([5]; pulmonary resistance, read-out: ED 50 against resistance changes): 0.033 mg/kg

The next lines start with results.

Row | IC50 ([1]; Homo sapiens, Platelet) | IC50 ([2]; Homo sapiens, Platelet) | Structure (SMILES) | further results
5 | 1200 nM | 2.5 µM | CCOC(=O)CCCCCC1CC2C(CC(=O)N2CCC(C)(O)C2CCCCC2)O1 (stereo not shown) [Example 6, 2-(5'-ethoxycarbonyl-n-pentyl)-4-(3"-hydroxy-3"-cyclohexyl-n-butyl)-5-oxo-5H-hexahydro-furo[3,2b]pyrrole] | –
6 | 260 nM | 0.54 µM | CCOC(=O)CCCCC1CC2C(CC(=O)N2CCC(C)(O)C2CCCCC2)O1 (stereo not shown) [Example 7, 2-(5'-ethoxycarbonyl-n-butyl)-4-(3"-hydroxy-3"-cyclohexyl-n-butyl)-5-oxo-5H-hexahydro-furo[3,2b]pyrrole] | –
7 | 17000 nM | 100 µM | CCOC(=O)CCCCC1CC2C(CC(=O)N2CCC(C)(O)CC2CCCCC2)O1 (stereo not shown) [Example 5, 2-(4'-ethoxycarbonyl-n-butyl)-4-(3"-hydroxy-3"-hydroxy-3"-methyl-4"-cyclohexyl-n-butyl)5-oxo-5H-hexahydro-furo [3-2b]pyrrole] | –
